Measurements: patent US8257928B2, “Methods for predicting and treating tumors resistant to drug, immunotherapy and radiation” (The Regents of the University of California, priority 2008, dated 2012)

System: HMT3522 T4-2 cells
Test: Percent cell death in 2D monolayer, 3D rBM and reverted cultures (active caspase 3)
Assay type: cell-based, human
Text: The oligonucleotides specifying the small hairpin RNAs (shRNAs) were subcloned from pSilencer-H1 into pLZRS-MFG-CMV-Neo-U6, a recombinant self-inactivating retroviral vector constructed from the backbone of an MFG provirus (Proc. Natl. Acad. Sci. USA 85:6460-6464 (1988); Proc. Natl. Acad. Sci. USA 90:3539-3543 (1993)), which directs the expression of shRNA under the control of the U6 promoter. Amphotropic retrovirus was produced in Phoenix ampho cells (provided by Professor G. Nolan, Stanford Medical Center) with packaging vectors pCgp and pVSVG to boost viral titer. S1 cells or T4-2 cells, maintained in monolayer cultures, were then spin infected with retrovirus carrying the various RNAi constructs and infected cell populations were selected using 300 μg/ml G418 (Invitrogen).
Non-neoplastic HMT3522 S1 breast epithelial cells or neoplastic HMT3522 T4-2 cells were embedded (8.5×10^5/ml) within reconstituted basement membrane (rBM) gel (Matrigcl, BD Biosciences) in chamber slides (Lab-Tek chamber slides, Nunc) according to the procedures described in U.S. Pat. No. 6,123,941 and Nat. Method. 4:359-365 (2007). […] Phenotypic reversion of HMT3522 T4-2 cells in three dimensional rBM cultures was performed using an epidermal growth factor receptor (EGFR) specific tyrosine kinase inhibitor tyrphostin AG 1478 (100 nM) (Calbiochem), as previously described (Proc. Natl. Acad. Sci. USA 95:14821-14826 (1998))
Apoptotic cell death of the breast epithelial cells cultured in three dimensional rBM was initiated by treatment with recombinant, purified human tumor necrosis factor-related apoptosis-inducing ligand (TRAIL) peptides (BIOMOL) or Paclitaxel (Sigma-Aldrich) as described (Cancer Cell 2:205-216 (2002)). DNA damage-induced cell death was initiated by ionizing radiation (IR) using a Mark I Cesium 137 irradiator (JL Shepherd & Associates).
Percent cell death induced by TRAIL or Paclitaxel was quantified using detection of active caspase 3 (Cell Signaling) by indirect immunofluorescence as described (J. Cell Biol. 163:1397-1407 (2003)). Percent cell death induced by IR was quantified using Live/Dead Viability/Cytotoxicity Assay (Molecular Probes). For both methods, cells were counterstained with 4′,6-diamidino-2-phenylindole (DAPI) to label cell nuclei present at different focal planes in the 3D architectures. Percent death was calculated as cells positive for ethidium bromide or active caspase 3 expressed as a percentage of the total number of cells scored by the nuclear staining.
Percent cell death induced by TRAIL was quantified using detection of active caspasc 3 as described in Example 4.

Molecule | death sensitivity of cells cultured in 3D rBM (3D rBM disorganized aggregates vs 2D monolayer, TRAIL 1.0 μg/mL, Paclitaxel 20 μM) | death sensitivity of structurally reverted spheroids (reverted with tyrphostin AG 1478 in 3D rBM, TRAIL 1.0 μg/mL, Paclitaxel 20 μM) | sensitivity to the TRAIL treatment of N-CoR2-overexpressed cells (HDAC3 simultaneously downregulated by retrovirus-mediated RNAi)
CC(=O)O[C@H]1C(=O)[C@@]2(C)[C@H]([C@H](OC(=O)c3ccccc3)[C@]3(O)C[C@H](OC(=O)[C@H](O)[C@@H](NC(=O)c4ccccc4)c4ccccc4)C(C)=C1C3(C)C)[C@]1(OC(C)=O)CO[C@@H]1C[C@@H]2O [Paclitaxel, reference compound] | decreased sensitivity | further decrease in the sensitivity | 
HDAC3 shRNA: retrovirally expressed small hairpin RNA, siRNA sequence 5′-AAGATGCTGAACCATGCACCT-3′ (SEQ ID NO:2) for HDAC3 |  |  | restored to an extent comparable to that of vehicle-treated cells
